Results reported in patent US20260345619A1 (Principia Biopharma Inc., priority 2023, published 2026).

Test: Asthma Quality of Life Questionnaire with Standardized Activities (AQLQ(S))
Assay type: in vivo, human
Details: for AQLQ global score responders at Week 12, number / AQLQ global score responders at Week 12, percentage: improvement ≥0.5 from baseline
Excerpt: The AQLQ(S) is a self-administered patient reported outcome to measure the functional impairments that are most troublesome to adolescents and adults ≥12 years of age as a result of their asthma.
Asthma Quality of Life Questionnaire with Standardized Activities (AQLQ(S)) self-administered (≥12 years)
The AQLQ(S) was designed as a self-administered patient reported outcome to measure the functional impairments that are most troublesome to adolescents and adults ≥12 years of age as a result of their asthma. The instrument is comprised of 32 items, each rated on a 7-point Likert scales from 1 to 7. The AQLQ(S) has 4 domains. The domains and the number of items in each domain are as follows: • Symptoms (12 items) • Activity limitation (11 items) • Emotional function (5 items) • Environmental stimuli (4 items)
A global score is calculated ranging from 1 to 7 and a score by domain. Higher scores indicate better quality of life. […] Patients were to complete the questionnaire in an electronic diary during on-site visits.
Secondary endpoints included pre-bronchodilator FEV1 change from baseline at EOT, ACQ-5 score change from baseline, and AQLQ score change from baseline. Other secondary and exploratory endpoints are described in Table 2.

[1] = 400 mg BID, observed/LOCF imputed, n=29, mITT
[2] = 400 mg TID, observed/LOCF imputed, n=53, mITT

## CC(C)(C=C(C#N)C(=O)N1CCC[C@@H](n2nc(-c3ccc(Oc4ccccc4)cc3F)c3c(N)ncnc32)C1)N1CCN(C2COC2)CC1 (mixture of isomers) [rilzabrutinib, (R)-2-[3-[4-amino-3-(2-fluoro-4-phenoxy-phenyl)pyrazolo[3,4-d]pyrimidin-1-yl]piperidine-1-carbonyl]-4-methyl-4-[4-(oxetan-3-yl)piperazin-1-yl]pent-2-enenitrile]
400 mg BID, 95% CI 1.19, 20.17, mITT
  AQLQ global score responder analysis at Week 12, OR vs. placebo (95% CI): 4.89
400 mg BID, N=32, mITT
  AQLQ global score responders (including multiply imputed) at Week 12, number: 16.6
  AQLQ global score responders (including multiply imputed) at Week 12, percentage: (51.7)
[1]
  AQLQ global score responders at Week 12, number: 15
  AQLQ global score responders at Week 12, percentage: (51.7) (14/1) %
  AQLQ global score non-responders at Week 12, number: 14
  AQLQ global score non-responders at Week 12, percentage: (48.3) (10/4)
400 mg BID, mITT, 1 asthma exacerbation within 2 years
  AQLQ global score change from baseline at Week 12, LS Mean Diff vs. placebo: 0.75
400 mg BID, mITT, 2 asthma exacerbations within 2 years
  AQLQ global score change from baseline at Week 12, LS Mean Diff vs. placebo: 0.61
400 mg BID, mITT, >2 asthma exacerbations within 2 years
  AQLQ global score change from baseline at Week 12, LS Mean Diff vs. placebo: 1.18
400 mg BID, mITT, Eastern Europe
  AQLQ global score change from baseline at Week 12, LS Mean Diff vs. placebo: 0.08
400 mg BID, mITT, Latin America
  AQLQ global score change from baseline at Week 12, LS Mean Diff vs. placebo: 0.87
400 mg BID, mITT, age <45 years
  AQLQ global score change from baseline at Week 12, LS Mean Diff vs. placebo: 0.20
400 mg BID, mITT, age at asthma onset <12 years
  AQLQ global score change from baseline at Week 12, LS Mean Diff vs. placebo: 0.34
400 mg BID, mITT, age at asthma onset <18 years
  AQLQ global score change from baseline at Week 12, LS Mean Diff vs. placebo: 0.43
400 mg BID, mITT, age at asthma onset ≥12-<18 years
  AQLQ global score change from baseline at Week 12, LS Mean Diff vs. placebo: 2.49
400 mg BID, mITT, age at asthma onset ≥18-<40 years
  AQLQ global score change from baseline at Week 12, LS Mean Diff vs. placebo: 0.57
400 mg BID, mITT, age at asthma onset ≥18 years
  AQLQ global score change from baseline at Week 12, LS Mean Diff vs. placebo: 0.75
400 mg BID, mITT, age at asthma onset ≥40 years
  AQLQ global score change from baseline at Week 12, LS Mean Diff vs. placebo: 0.93
400 mg BID, mITT, age ≥45 years
  AQLQ global score change from baseline at Week 12, LS Mean Diff vs. placebo: 1.04
400 mg BID, mITT, all others than low EOS and low FeNO
  AQLQ global score change from baseline at Week 12, LS Mean Diff vs. placebo: 0.61
400 mg BID, mITT, atopic medical conditions: no
  AQLQ global score change from baseline at Week 12, LS Mean Diff vs. placebo: 1.08
400 mg BID, mITT, atopic medical conditions: yes
  AQLQ global score change from baseline at Week 12, LS Mean Diff vs. placebo: 0.52
400 mg BID, mITT, baseline ACQ-5 score >2
  AQLQ global score change from baseline at Week 12, LS Mean Diff vs. placebo: 0.95
400 mg BID, mITT, baseline ACQ-5 score ≤2
  AQLQ global score change from baseline at Week 12, LS Mean Diff vs. placebo: 0.43
400 mg BID, mITT, baseline BMI <25 kg/m^2
  AQLQ global score change from baseline at Week 12, LS Mean Diff vs. placebo: 1.00
400 mg BID, mITT, baseline BMI ≥25-<30 kg/m^2
  AQLQ global score change from baseline at Week 12, LS Mean Diff vs. placebo: 0.67
400 mg BID, mITT, baseline BMI ≥30 kg/m^2
  AQLQ global score change from baseline at Week 12, LS Mean Diff vs. placebo: 0.73
400 mg BID, mITT, baseline FEV1 reversibility <12%
  AQLQ global score change from baseline at Week 12, LS Mean Diff vs. placebo: 0.73
400 mg BID, mITT, baseline FEV1 reversibility ≥12%
  AQLQ global score change from baseline at Week 12, LS Mean Diff vs. placebo: 0.29
400 mg BID, mITT, baseline FeNO <25 ppb
  AQLQ global score change from baseline at Week 12, LS Mean Diff vs. placebo: 0.98
400 mg BID, mITT, baseline FeNO <35 ppb
  AQLQ global score change from baseline at Week 12, LS Mean Diff vs. placebo: 0.84
400 mg BID, mITT, baseline FeNO ≥25 ppb
  AQLQ global score change from baseline at Week 12, LS Mean Diff vs. placebo: 0.51
400 mg BID, mITT, baseline FeNO ≥35 ppb
  AQLQ global score change from baseline at Week 12, LS Mean Diff vs. placebo: 0.77
400 mg BID, mITT, baseline IgE <100 IU/mL
  AQLQ global score change from baseline at Week 12, LS Mean Diff vs. placebo: 0.90
400 mg BID, mITT, baseline IgE <median 210.8 IU/mL
  AQLQ global score change from baseline at Week 12, LS Mean Diff vs. placebo: 1.03
400 mg BID, mITT, baseline IgE ≥100 IU/mL
  AQLQ global score change from baseline at Week 12, LS Mean Diff vs. placebo: 0.59
400 mg BID, mITT, baseline IgE ≥median 210.8 IU/mL
  AQLQ global score change from baseline at Week 12, LS Mean Diff vs. placebo: 0.67
400 mg BID, mITT, baseline blood eosinophil level 1 <0.15 10^9/L
  AQLQ global score change from baseline at Week 12, LS Mean Diff vs. placebo: 0.62
400 mg BID, mITT, baseline blood eosinophil level 1 ≥0.15 10^9/L
  AQLQ global score change from baseline at Week 12, LS Mean Diff vs. placebo: 0.69
400 mg BID, mITT, baseline blood eosinophil level 2 <0.3 10^9/L
  AQLQ global score change from baseline at Week 12, LS Mean Diff vs. placebo: 0.79
400 mg BID, mITT, baseline blood eosinophil level 2 ≥0.3 10^9/L
  AQLQ global score change from baseline at Week 12, LS Mean Diff vs. placebo: 0.67
400 mg BID, mITT, baseline percent predicted FEV1 <68%
  AQLQ global score change from baseline at Week 12, LS Mean Diff vs. placebo: 0.92
400 mg BID, mITT, baseline percent predicted FEV1 ≥68%
  AQLQ global score change from baseline at Week 12, LS Mean Diff vs. placebo: 0.47
400 mg BID, mITT, baseline pre-bronchodilator FEV1 <2.022 L
  AQLQ global score change from baseline at Week 12, LS Mean Diff vs. placebo: 0.89
400 mg BID, mITT, baseline pre-bronchodilator FEV1 ≥2.022 L
  AQLQ global score change from baseline at Week 12, LS Mean Diff vs. placebo: 0.54
400 mg BID, mITT, baseline weight <60 kg
  AQLQ global score change from baseline at Week 12, LS Mean Diff vs. placebo: 1.63
400 mg BID, mITT, baseline weight ≥60-<90 kg
  AQLQ global score change from baseline at Week 12, LS Mean Diff vs. placebo: 0.70
400 mg BID, mITT, baseline weight ≥90 kg
  AQLQ global score change from baseline at Week 12, LS Mean Diff vs. placebo: −0.26
400 mg BID, mITT, female
  AQLQ global score change from baseline at Week 12, LS Mean Diff vs. placebo: 0.73
400 mg BID, mITT, former smokers
  AQLQ global score change from baseline at Week 12, LS Mean Diff vs. placebo: 1.89
400 mg BID, mITT, low EOS (<0.15) and low FeNO (<25)
  AQLQ global score change from baseline at Week 12, LS Mean Diff vs. placebo: 2.45
400 mg BID, mITT, male
  AQLQ global score change from baseline at Week 12, LS Mean Diff vs. placebo: 0.41
400 mg BID, mITT, never smokers
  AQLQ global score change from baseline at Week 12, LS Mean Diff vs. placebo: 0.65
400 mg BID, placebo 34.5%, p=0.0281
  participants with AQLQ improvement of at least 0.5 from baseline at Week 12: 51.7%
400 mg TID, 95% CI 1.02, 4.89, mITT
  AQLQ global score responder analysis at Week 12, OR vs. placebo (95% CI): 2.23
400 mg TID, N=64, mITT
  AQLQ global score responders (including multiply imputed) at Week 12, number: 32.9
  AQLQ global score responders (including multiply imputed) at Week 12, percentage: (51.4)
[2]
  AQLQ global score responders at Week 12, number: 29
  AQLQ global score responders at Week 12, percentage: (54.7) (28/1) %
400 mg TID, mITT, 1 asthma exacerbation within 2 years
  AQLQ global score change from baseline at Week 12, LS Mean Diff vs. placebo: 0.29
400 mg TID, mITT, 2 asthma exacerbations within 2 years
  AQLQ global score change from baseline at Week 12, LS Mean Diff vs. placebo: 0.27
400 mg TID, mITT, Eastern Europe
  AQLQ global score change from baseline at Week 12, LS Mean Diff vs. placebo: 0.43
400 mg TID, mITT, Latin America
  AQLQ global score change from baseline at Week 12, LS Mean Diff vs. placebo: −0.22
400 mg TID, mITT, age <45 years
  AQLQ global score change from baseline at Week 12, LS Mean Diff vs. placebo: 0.43
400 mg TID, mITT, age at asthma onset <12 years
  AQLQ global score change from baseline at Week 12, LS Mean Diff vs. placebo: 0.46
400 mg TID, mITT, age at asthma onset <18 years
  AQLQ global score change from baseline at Week 12, LS Mean Diff vs. placebo: 0.31
400 mg TID, mITT, age at asthma onset ≥12-<18 years
  AQLQ global score change from baseline at Week 12, LS Mean Diff vs. placebo: −0.37
400 mg TID, mITT, age at asthma onset ≥18-<40 years
  AQLQ global score change from baseline at Week 12, LS Mean Diff vs. placebo: 0.25
400 mg TID, mITT, age at asthma onset ≥18 years
  AQLQ global score change from baseline at Week 12, LS Mean Diff vs. placebo: 0.24
400 mg TID, mITT, age at asthma onset ≥40 years
  AQLQ global score change from baseline at Week 12, LS Mean Diff vs. placebo: 0.29
400 mg TID, mITT, age ≥45 years
  AQLQ global score change from baseline at Week 12, LS Mean Diff vs. placebo: 0.15
